Reference: patent publication US6469006B1, “Antiviral indoleoxoacetyl piperazine derivatives” (priority 1999, dated 2002)

What follows are compounds tested on single-round infectious HIV-1 reporter virus (assay: microbe, parasite or virus in culture). Settings: Human immunodeficiency virus 1, HeLa-CD4/CCR5, 72 h, read-out: % Inhibition @ 10 μM.
Type: cell-based
From the text: The virus infection was quantified 3 days after infection by measuring luciferase expression from integrated viral DNA in the infected cells (Chen et al, Ref. 41).
Virus production—Human embryonic Kidney cell line, 293, propagated in Dulbecco's Modified Eagle Medium (Life Technologies, Gaithersburg, Md.) containing 10% fetal Bovine serum (FBS, Sigma, St. Louis, Mo.).
Virus infection—Human epithelial cell line, HeLa, expressing the HIV-1 receptors CD4 and CCR5 was propagated in Dulbecco's Modified Eagle Medium (Life Technologies, Gaithersburg, Md.) containing 10% fetal Bovine serum (FBS, Sigma, St. Louis, Mo.) and supplemented with 0.2 mg/ml Geneticin (Life Technologies, Gaithersburg, Md.) and 0.4 mg/ml Zeocin (Invitrogen, Carlsbad, Calif.).
Virus-Replication defective reporter virus was produced by co-transfecting human embryonic Kidney 293 cells with an HIV-1 envelope DNA expression vector and a proviral cDNA containing an envelope deletion mutation and the luciferase reporter gene inserted in place of HIV-1 nef sequences (Chen, 1994). Transfections were performed using lipofectAMINE PLUS reagent as described by the manufacturer (Life Technologies, Gaithersburg, Md.).
1. Compound was added to HeLa CD4 CCR5 cells plated in 96 well plates at a cell density of 5×10^4 cells per well in 100 ul Dulbecco's Modified Eagle Medium containing 10% fetal Bovine serum at a concentration of <20 uM.
2. 100 ul of replication defective reporter virus in Dulbecco's Modified Eagle Medium was then added to the plated cells and compound at a multiplicity of infection (MOI) of 0.01, resulting in a final volume of 200 ul per well and a final compound concentration of <10 uM.
3. Samples were harvested 72 hours after infection.
4. Viral infection was monitored by measuring luciferase expression from viral DNA in the infected cells using a luciferase reporter gene assay kit (Roche Molecular Biochemicals, Indianapolis, Ind.). Infected cell supernatants were removed and 50 ul of Dulbecco's Modified Eagle Medium (without phenol red) and 50 ul of luciferase assay reagent reconstituted as described by the manufacturer (Roche Molecular Biochemicals, Indianapolis, Ind.) was added per well. Luciferase activity was then quantified by measuring luminescence using a Wallac microbeta scintillation counter.

Row | SMILES | inhibition at 10 µM
1 | C[C@@H]1CN(C(=O)c2ccccn2)CCN1C(=O)C(=O)c1c[nH]c2c(C#N)cccc12 [Example 212] | > 98%

Same assay, conditions: Table 1, Examples 35-90; HeLa CD4 CCR5 cells, luciferase reporter virus, 3 days after infection

Row | SMILES | % Inhibition @ 10 uM
2 | O=C(C(=O)N1CCN(C(=O)c2cccc(O)c2)CC1)c1c[nH]c2cccc(F)c12 [Example 88] | >98%
3 | CC1CN(C(=O)c2cccc(N)c2)CCN1C(=O)C(=O)c1c[nH]c2c(F)ccc(F)c12 (centres unmarked) [Example 74] | >98%
4 | COc1ccc(Cl)c2[nH]cc(C(=O)C(=O)N3CCN(C(=O)c4cccc(N)c4)CC3C)c12 (centres unmarked) [Example 77] | >98%
5 | CC1CN(C(=O)c2cccc(N)c2)CCN1C(=O)C(=O)c1c[nH]c2cccc(F)c12 (centres unmarked) [Example 76] | >98%
6 | CC(=O)Oc1ccccc1C(=O)N1CCN(C(=O)C(=O)c2c[nH]c3cccc(F)c23)CC1 [Example 82] | 91%
7 | Nc1cccc(C(=O)N2CCN(C(=O)C(=O)c3c[nH]c4c(F)ccc(F)c34)CC2)c1 [Example 73] | >98%
8 | COc1cccc2[nH]cc(C(=O)C(=O)N3CCN(C(=O)c4cccc(N)c4)CC3C)c12 (centres unmarked) [Example 79] | >98%
9 | O=C(C(=O)N1CCN(C(=O)c2ccc(O)cc2)CC1)c1c[nH]c2cccc(F)c12 [Example 89] | 95%
10 | CC(=O)Oc1cccc(C(=O)N2CCN(C(=O)C(=O)c3c[nH]c4cccc(F)c34)CC2)c1 [Example 83] | >98%
11 | CC(=O)Oc1ccc(C(=O)N2CCN(C(=O)C(=O)c3c[nH]c4cccc(F)c34)CC2)cc1 [Example 84] | 98%
12 | CC(=O)Oc1ccc(C(=O)N2CCN(C(=O)C(=O)c3c[nH]c4cccc(Cl)c34)CC2)cc1 [Example 85] | 93%
13 | Nc1cccc(C(=O)N2CCN(C(=O)C(=O)c3c[nH]c4ccccc34)CC2)c1 [Example 72] | 87%
14 | COc1ccc(Cl)c2[nH]cc(C(=O)C(=O)N3CCN(C(=O)c4ccc(N)cc4)CC3C)c12 (centres unmarked) [Example 78] | >98%
15 | CC(=O)Oc1cccc(C(=O)N2CCN(C(=O)C(=O)c3c[nH]c4cccc(Cl)c34)CC2)c1 [Example 86] | >98%
16 | COc1ccc(F)c2c(C(=O)C(=O)N3CCN(C(=O)c4ccc(N)cc4)CC3C)c[nH]c12 (centres unmarked) [Example 81] | >98%
17 | COc1ccc(F)c2c(C(=O)C(=O)N3CCN(C(=O)c4cccc(N)c4)CC3C)c[nH]c12 (centres unmarked) [Example 80] | >98%
18 | O=C(C(=O)N1CCN(C(=O)c2ccccc2O)CC1)c1c[nH]c2cccc(F)c12 [Example 87] | 86%
19 | CC1CN(C(=O)c2ccc(N)cc2)CCN1C(=O)C(=O)c1c[nH]c2c(F)ccc(F)c12 (centres unmarked) [Example 75] | >98%

Same assay, conditions: Table 4; HeLa CD4 CCR5 cells, luciferase reporter virus, 3 days after infection

Row | SMILES | % Inhibition @ 10 μM
20 | COC(=O)c1cccc2c(C(=O)C(=O)N3CCN(C(=O)c4ccc(Br)o4)CC3C)c[nH]c12 (centres unmarked) [Entry 200] | >98%
21 | CC1CN(C(=O)c2ccccn2)CCN1C(=O)C(=O)c1c[nH]c2c(F)cccc12 (centres unmarked) [Entry 207] | >98%
22 | CC1CN(C(=O)c2ccccn2)CCN1C(=O)C(=O)c1c[nH]c2cccc(F)c12 (centres unmarked) [Entry 202] | >98%
23 | CC1CN(C(=O)c2ccccn2)CCN1C(=O)C(=O)c1c[nH]c2ccc(F)cc12 (centres unmarked) [Entry 205] | 61%
24 | CC1CN(C(=O)c2ccccn2)CCN1C(=O)C(=O)c1c[nH]c2cc(Cl)ccc12 (centres unmarked) [Entry 206] | 88%
25 | COc1cccc2[nH]cc(C(=O)C(=O)N3CCN(C(=O)c4ccccn4)C[C@H]3C)c12 [Entry 213] | >98%
26 | COc1ccc(Br)c2[nH]cc(C(=O)C(=O)N3CCN(C(=O)c4ccccn4)C[C@H]3C)c12 [Entry 214] | >98%
27 | COc1ccc(OC)c2c(C(=O)C(=O)N3CCN(C(=O)c4ccc(Br)o4)CC3C)c[nH]c12 (centres unmarked) [Entry 199] | >98%
28 | COc1cccc2c(C(=O)C(=O)N3CCN(C(=O)c4ccccn4)C[C@H]3C)c[nH]c12 [Entry 208] | >98%
29 | Cc1cccc2c(C(=O)C(=O)N3CCN(C(=O)c4ccccn4)C[C@H]3C)c[nH]c12 [Entry 209] | >98%
30 | CC1CN(C(=O)c2ccccn2)CCN1C(=O)C(=O)c1c[nH]c2c(F)ccc(F)c12 (centres unmarked) [Entry 196] | >98%
31 | COc1ccc(Cl)c2[nH]cc(C(=O)C(=O)N3CCN(C(=O)c4ccccn4)C[C@H]3C)c12 [Entry 211] | >98%
32 | Cc1ccc(F)c2c(C(=O)C(=O)N3CCN(C(=O)c4ccccn4)CC3C)c[nH]c12 (centres unmarked) [Entry 197] | 93%
33 | CCc1cccc2c(C(=O)C(=O)N3CCN(C(=O)c4ccccn4)C[C@H]3C)c[nH]c12 [Entry 210] | 88%
34 | CC1CN(C(=O)c2ccccn2)CCN1C(=O)C(=O)c1c[nH]c2cccc(Br)c12 (centres unmarked) [Entry 204] | 50%
35 | COc1ccc(F)c2c(C(=O)C(=O)N3CCN(C(=O)c4ccccn4)C[C@H]3C)c[nH]c12 [Entry 215] | >98%
36 | CC1CN(C(=O)c2ccccn2)CCN1C(=O)C(=O)c1c[nH]c2c(F)ccc(F)c12 (centres unmarked) [Entry 201] | >98%
37 | CC1CN(C(=O)c2ccccn2)CCN1C(=O)C(=O)c1c[nH]c2cccc(Cl)c12 (centres unmarked) [Entry 203] | 80%
38 | CC1CN(C(=O)c2ccc(Br)o2)CCN1C(=O)C(=O)c1c[nH]c2c(F)ccc(F)c12 (centres unmarked) [Entry 198] | >98%
